# Like-named read-outs stand apart in the source and are kept apart here.
# Tests used:
# [1] = rat, in vivo
# Procedure: (§1) The pharmacokinetic parameters, including the area under the plasma concentration-time curve from time zero to time t (AUC0-t) to time infinity (AUC0-∞), the time to reach the maximum plasma concentration (T max), the elimination half-time (t 1/2), and the maximum plasma concentration (C max), were calculated using the pharmacokinetic software Phoenix® WinNonlin®, version 7.0 (Scientific Consulting Inc., Apex, NC, United States). Data are expressed as the mean ± standard deviation (SD) for each group. The dose-exposure relationship was evaluated by the power function model combined with the confidence interval method ([Smith et al., 2000]; [Sethuraman et al., 2007]; [Hummel et al., 2009]). First, the administration dose, AUC0-∞ and C max were logarithmically transformed, and then a linear regression was performed to obtain the curve correlation coefficient (R^2), slope and 90% confidence interval (90% CI).
# [2] = cited from earlier work
# in vivo [3] = details: Sprague-Dawley, rat, po, 18 g/kg
# Procedure: (§2) For the tissue distribution study, 18 rats were randomly divided into three groups (n = 6, each) and orally administered 18 g/kg RPM extract. The rats under isoflurane anesthesia were sacrificed by bleeding from the abdominal aorta at 5, 15, and 60 min (six rats per time point) after gavage with 18 g/kg RPM extract. Subsequently, the heart, liver, spleen, lung, kidney, brain, stomach, small intestine, bladder, and gonads (testes of male rats, and uterus and ovaries of female rats) were immediately collected. An accurately weighed amount of fresh tissue sample (0.25 g) was individually homogenized with normal saline (1 ml) and transferred (50 μL) as a tissue homogenate to 1.5 ml centrifuge tubes for use as the tissue samples. All tissue samples were stored at −70°C until analysis.
# (§3) Samples were prepared using the protein precipitation process. […] The tissue samples were homogenized in four parts of ice-cold 0.9% saline solution and then centrifuged at 4°C and 12,000 × g for 10 min to obtain tissue homogenates. […] Tissue homogenate, urine, bile and fecal samples were subjected to a similar process as the rat plasma samples.
# (§4) For the tissue distribution study, 18 rats were randomly divided into three groups (n=6, each), and orally administered with 18 g/kg RPM extract. The rats were sacrificed at 5, 15, 60 min after orally administering RPM. Subsequently, the heart, liver, spleen, lung, kidney, brain, stomach, small intestine, bladder, gonad (testes of male rats, uterus and ovaries of female rats) were immediately collected. An accurately weighed amount of fresh tissue sample (0.25 g) was individually homogenized with normal saline (1 mL) and transferred (50 μL) as a tissue homogenate to 1.5 mL centrifuge tubes for use as the tissue samples.
# [4] = rat, in vivo, po
# Source text: (§5) For the pharmacokinetic (PK) study, three groups (n = 6 each) of rats were orally administered RPM extract (6, 18, and 36 g/kg). In the plasma pharmacokinetics experiment, doses were 6, 18, and 36 g/kg for the single administration group and 18 g/kg for the continuous administration group. The doses were set at a subtoxic level ([Zhang et al., 2013]; [Wang et al., 2015]) to investigate the pharmacokinetic profiles of the constituents of RPM (36 g/kg group) and were approximately 60 times the upper dose (6 g/day) for humans recommended by the 2020 edition of Chinese Pharmacopoeia ([Chinese Pharmacopoeia Commission, 2020]), which was converted to a dose for rats based on body surface area conversion ([Reagan-Shaw et al., 2008]). In addition, the low and medium doses decreased in a certain proportion. Serial blood samples (∼120 μL; before dosing and at 5, 15, and 30 min, and 1, 2, 4, 6, 8, 12, and 24 h after administration) were collected in heparinized tubes from the orbital sinus under light isoflurane. The blood samples were centrifuged at 12000 g for 2 min, and the plasma fractions were decanted and frozen at −70°C until analysis.
# (§6) Samples were prepared using the protein precipitation process. Rat plasma (50 μL) spiked with 10 μL of IS (puerarin 100 ng/ml) was extracted with 150 μL acetonitrile. After vortex shaking for 5 min and centrifugation at 14,000 g for 5 min, 150 μL of the organic layer was transferred to a clean tube and evaporated to dryness at 25°C under a stream of nitrogen. The residue was reconstituted in 50 μL of the initial mobile phase and subjected to another round of centrifugation at 14,000 g for 5 min, and 5 μL of the supernatant was injected for LC–MS/MS analysis.
# (§7) The analysis was performed on an AB Sciex API 5500 Q Trap mass spectrometer (Toronto, Canada), interfaced with a Waters Acquity UPLC separation module.
# as §1
# in vivo [5] = details: Sprague-Dawley, rat, po
# Source text: as §5, §6, §7, §1
# [6] = Dose-exposure relationship (power function model with confidence interval method)
# Procedure: as §1
# [7] = Plasma pharmacokinetics of RPM constituents after oral RPM extract
# Source text: as §5, §6, §7, §1
# [8] = Excretion into urine and feces and mass balance after oral RPM extract; details: for dose excreted: Sprague-Dawley, rat, po, mass balance, 18 g/kg RPM extract p.o.
# Procedure: (§8) For the excretion study, the rats were housed singly in metabolic cages with urine collection tubes kept at 4 °C during sample collection. Urine and fecal samples were collected at time intervals of 0–4, 4–8, 8–24, 24–32, and 32–48 h after a single dose of RPM extract at 18 g/kg and then weighed. Another six rats were anesthetized with pentobarbital, fixed in the supine position and subjected to bile duct drainage surgery, and the abdominal wound was sutured. Blank bile samples were collected before the administration of RPM. The rats were weighed, and the state of the rats was observed. Subsequently, they were orally administered 18 g/kg RPM extract. The bile samples were collected at time intervals of 0–1, 1–2, 2–4, 4–6, 6–8, 8–24, 24–32 and 32–48 h. The urine, feces, and bile samples were stored at −70°C until use.
# (§9) Samples were prepared using the protein precipitation process. […] After vortex shaking for 5 min and centrifugation at 14,000 g for 5 min, 150 μL of the organic layer was transferred to a clean tube and evaporated to dryness at 25°C under a stream of nitrogen. The residue was reconstituted in 50 μL of the initial mobile phase and subjected to another round of centrifugation at 14,000 g for 5 min, and 5 μL of the supernatant was injected for LC–MS/MS analysis. […] Urine and bile samples were centrifuged at 4°C and 12,000 × g for 15 min. Fecal samples were homogenized in 0.9% saline and then centrifuged at 4°C and 12,000 × g for 15 min to gather the fecal homogenates. Tissue homogenate, urine, bile and fecal samples were subjected to a similar process as the rat plasma samples.
# (§10) For the excretion study, 6 rats were placed in metabolic cage after orally administered with 18 g/kg RPM extract, and urine, feces samples were collected at time intervals of 0–4, 4–8, 8–24, 24–32, 32–48, 48–60, and 60–72 h. Another 6 rats were anesthetized with pentobarbital, fixed in the supine position and performed bile duct drainage operation, and the abdominal wound was sutured. […] Subsequently, they were orally administered with 18 g/kg RPM extract. The bile samples were collected at time intervals of 0–1, 1–2, 2–4, 4–6, 6–8, 8–24, 24–32 and 32–48 h. The urine, feces, and bile samples were stored at −70 °C until use.
# [9] = Biliary excretion in bile duct drained rats after oral RPM extract; details: single p.o. RPM extract 18 g/kg, rat bile
# Procedure: as §8, §9, §10
# [10] = Tissue distribution of RPM constituents after oral RPM extract; details: Sprague-Dawley, rat, po, 18 g/kg
# Procedure: as §2, §3, §4
# [11] = no source given; cited from earlier work
# [12] = RPM extract 36 g/kg p.o., rat plasma, Mean ± SD, n = 6, ref Cheng et al., 2020
# [13] = Sprague-Dawley, rat, plasma, po, 6 g/kg
# [14] = Sprague-Dawley, rat, plasma, po, 18 g/kg
smiles,measurement,setting,value
O=C1c2cc(O)cc(O)c2C(=O)c2c(O)cc(CO)cc21 [Citreorosein],Conclusion (dose-exposure relationship),[1],Uncertainty of linear relationship
same,AUC0-∞,"[2]; rat, in vivo, po, 36 g/kg",468 ± 337 nmol·h/L
same,AUC(0-t),"[2]; rat, in vivo, po, 36 g/kg",458 ± 338 nmol·h/L
same,Cmax,"[2]; rat, in vivo, po, 36 g/kg",521 ± 512 nM
same,AUC(0-t),"in vivo [3]; both, AUC0-t in bladder",0.0604 µM·h
same,AUC(0-t),"in vivo [3]; both, AUC0-t in brain",0.00583 µM·h
same,AUC(0-t),"in vivo [3]; both, AUC0-t in heart",0.65 µM·h
same,AUC(0-t),"in vivo [3]; both, AUC0-t in intestine",0.211 µM·h
same,AUC(0-t),"in vivo [3]; both, AUC0-t in kidney",0.587 µM·h
same,AUC(0-t),"in vivo [3]; both, AUC0-t in liver",1.6 µM·h
same,AUC(0-t),"in vivo [3]; both, AUC0-t in lung",0.58 µM·h
same,AUC(0-t),"in vivo [3]; both, AUC0-t in spleen",0.873 µM·h
same,AUC(0-t),"in vivo [3]; both, AUC0-t in stomach",0.783 µM·h
same,AUC(0-t),"in vivo [3]; female, AUC0-t in ovary",0.227 µM·h
same,AUC(0-t),"in vivo [3]; female, AUC0-t in uterus",0.104 µM·h
same,AUC(0-t),"in vivo [3]; male, AUC0-t in testis",0.0137 µM·h
same,time at which C max was exhibited,[4],≤ 20 min
same,AUC(0-inf),in vivo [5]; 6 g/kg,0.0961 ± 0.0171 µM·h
same,AUC(0-t),in vivo [5]; 6 g/kg,0.0872 ± 0.0215 µM·h
same,Cmax,in vivo [5]; 6 g/kg,41.2 ± 8.8 nM
same,MRT inf,in vivo [5]; 6 g/kg,6.87 ± 1.42 h
same,Tmax,in vivo [5]; 6 g/kg,0.25 h
same,half-life,in vivo [5]; 6 g/kg,5.07 ± 1.32 h
same,AUC(0-inf),in vivo [5]; 18 g/kg,0.558 ± 0.499 µM·h
same,AUC(0-t),in vivo [5]; 18 g/kg,0.416 ± 0.251 µM·h
same,Cmax,in vivo [5]; 18 g/kg,349 ± 216 nM
same,MRT inf,in vivo [5]; 18 g/kg,5.69 ± 1.57 h
same,half-life,in vivo [5]; 18 g/kg,3.78 ± 0.75 h
"OC[C@H]1O[C@@H](Oc2c(O)cc(O)cc2/C=C/c2ccc(O)cc2)[C@H](O)[C@@H](O)[C@@H]1O [TSG, 2,3,5,4′-teterahydroxystilbene-2-O-β-D-glucoside]",Conclusion (dose-exposure relationship),"[6]; AUC0-∞ vs p.o. dose of RPM extract, critical interval 0.88–1.12",Nonlinear correlation
same,Conclusion (dose-exposure relationship),"[6]; C max vs p.o. dose of RPM extract, critical interval 0.80–1.20",Nonlinear correlation
same,Slope (90%CI),"[6]; log AUC0-∞ vs log p.o. dose of RPM extract, critical interval 0.88–1.12",0.342 (0.204–0.479)
same,Slope (90%CI),"[6]; log C max vs log p.o. dose of RPM extract, critical interval 0.80–1.20",0.536 (0.422–0.649)
same,AUC0-∞,[2]; [12],"4,610 ± 1,430 nmol·h/L"
same,AUC(0-t),[2]; [12],"4,460 ± 1,360 nmol·h/L"
same,Cmax,[2]; [12],4290 nM
same,time at which C max was exhibited,"[7]; RPM extract p.o., rat plasma",≤ 20 min
same,AUC(0-inf),[7]; [13],2.46 µM·h
same,AUC(0-t),[7]; [13],2.38 µM·h
same,Cmax,[7]; [13],1670 nM
same,MRT inf,[7]; [13],3.86 ± 1.17 h
same,Tmax,[7]; [13],0.24 ± 0.15 h
same,half-life,[7]; [13],6.53 ± 2.45 h
same,AUC(0-inf),[7]; [14],4.2 µM·h
same,AUC(0-t),[7]; [14],4.04 µM·h
same,Cmax,[7]; [14],3260 nM
same,MRT inf,[7]; [14],4.37 ± 0.91 h
same,half-life,[7]; [14],6.54 ± 2.02 h
same,dose excreted,"[8]; feces, Recovery in feces (%), feces collected 0–72 h",24.6%
same,dose excreted,"[8]; urine and feces, Recovery in urine and feces (%), urine plus feces, 0–72 h",38.9%
same,dose excreted,"[8]; urine, Recovery in urine (%), urine collected 0–72 h",14.3%
same,cumulative excretion into feces,"[8]; single p.o. RPM extract 18 g/kg, rat feces",2778 ± 349 nmol
same,cumulative excretion into urine,"[8]; single p.o. RPM extract 18 g/kg, rat urine",1619 ± 208 nmol
same,cumulative excretion into bile,[9],410 ± 55.4 nmol
same,AUC(0-t),"[10]; both, bladder, AUC0-t in bladder, rat tissue: bladder, 18 g/kg RPM extract p.o., tissues collected at 5, 15, 60 min",18.2 µM·h
same,AUC(0-t),"[10]; both, brain, AUC0-t in brain, rat tissue: brain, 18 g/kg RPM extract p.o., tissues collected at 5, 15, 60 min",6.42 µM·h
same,AUC(0-t),"[10]; both, heart, AUC0-t in heart, rat tissue: heart, 18 g/kg RPM extract p.o., tissues collected at 5, 15, 60 min",45.5 µM·h
same,AUC(0-t),"[10]; both, intestine, AUC0-t in intestine, rat tissue: intestine, 18 g/kg RPM extract p.o., tissues collected at 5, 15, 60 min",71.7 µM·h
same,AUC(0-t),"[10]; both, kidney, AUC0-t in kidney, rat tissue: kidney, 18 g/kg RPM extract p.o., tissues collected at 5, 15, 60 min",86.4 µM·h
same,AUC(0-t),"[10]; both, kidney, AUC0-t in the kidney, RPM extract 18 g/kg p.o., rat kidney, sampling 5, 15, 60 min",86.4 µM·h
same,AUC(0-t),"[10]; both, liver, AUC0-t in liver, rat tissue: liver, 18 g/kg RPM extract p.o., tissues collected at 5, 15, 60 min",114 µM·h
same,AUC(0-t),"[10]; both, lung, AUC0-t in lung, rat tissue: lung, 18 g/kg RPM extract p.o., tissues collected at 5, 15, 60 min",35.1 µM·h
same,AUC(0-t),"[10]; both, spleen, AUC0-t in spleen, rat tissue: spleen, 18 g/kg RPM extract p.o., tissues collected at 5, 15, 60 min",68.7 µM·h
same,AUC(0-t),"[10]; both, stomach, AUC0-t in stomach, rat tissue: stomach, 18 g/kg RPM extract p.o., tissues collected at 5, 15, 60 min",47.9 µM·h
same,AUC(0-t),"[10]; female, ovary, AUC0-t in ovary, rat tissue: ovary, 18 g/kg RPM extract p.o., tissues collected at 5, 15, 60 min",7.59 µM·h
same,AUC(0-t),"[10]; female, uterus, AUC0-t in uterus, rat tissue: uterus, 18 g/kg RPM extract p.o., tissues collected at 5, 15, 60 min",12.2 µM·h
same,AUC(0-t),"[10]; male, testis, AUC0-t in testis, rat tissue: testis, 18 g/kg RPM extract p.o., tissues collected at 5, 15, 60 min",7.77 µM·h
same,logP,[11],0.10

# Reference: paper PMC8899820, “Pharmacokinetics, Tissue Distribution, and Excretion Characteristics of a Radix Polygoni Multiflori Extract in Rats” (Frontiers in Pharmacology, 2022)
